Measurements published in ChEMBL document CHEMBL1147871, “Synthesis and antioxidant activity of new homocarnosine beta-cyclodextrin conjugates” (Eur J Med Chem, 2007).

What was measured:
Assay type in all cases: functional
[1] = Protective effect on copper-induced LDL oxidation at 1:2.5 copper to drug ratio relative to 40 uM copper
[2] = Effect on copper-induced human LDL peroxidation assessed as inhibition of malonaldehyde production at 100 uM after 4 hrs; set-up: scale not given: the % may be the effect or the level left
[3] = Protective effect on copper-induced LDL oxidation at 2:1 copper to drug ratio relative to 40 uM copper
[4] = Effect on copper-induced human LDL peroxidation assessed as inhibition of malonaldehyde production at 2 uM after 4 hrs; set-up: scale not given: the % may be the effect or the level left
[5] = Effect on copper-induced human LDL peroxidation assessed as inhibition of malonaldehyde production at 5 uM after 4 hrs; set-up: scale not given: the % may be the effect or the level left
[6] = Protective effect on copper-induced LDL oxidation at 1:1.25 copper to drug ratio relative to 40 uM copper
[7] = Protective effect on copper-induced LDL oxidation at 1:5 copper to drug ratio relative to 40 uM copper
[8] = Protective effect on copper-induced LDL oxidation at 4:1 copper to drug ratio relative to 40 uM copper
[9] = Effect on copper-induced human LDL peroxidation assessed as inhibition of malonaldehyde production at 200 uM after 4 hrs; set-up: scale not given: the % may be the effect or the level left
[10] = Effect on copper-induced human LDL peroxidation assessed as inhibition of malonaldehyde production at 20 uM after 4 hrs; set-up: scale not given: the % may be the effect or the level left
[11] = Protective effect on copper-induced LDL oxidation at 20:1 copper to drug ratio relative to 40 uM copper
[12] = Protective effect on copper-induced LDL oxidation at 8:1 copper to drug ratio relative to 40 uM copper
[13] = Effect on copper-induced human LDL peroxidation assessed as inhibition of malonaldehyde production at 50 uM after 4 hrs; set-up: scale not given: the % may be the effect or the level left
[14] = Effect on copper-induced human LDL peroxidation assessed as inhibition of malonaldehyde production at 10 uM after 4 hrs; set-up: scale not given: the % may be the effect or the level left

## NCCC(=O)N[C@@H](Cc1c[nH]cn1)C(=O)O
[1]
  Activity: 15%
[2]
  Activity: 15.1%
[3]
  Activity: 3%
[4]
  Activity: 0.28%
[5]
  Activity: 0.93%
[6]
  Activity: 9%
[7]
  Activity: 22%
[8]
  Activity: 1%
[9]
  Activity: 22.5%
[10]
  Activity: 2.72%
[11]
  Activity: 0%
[12]
  Activity: 1%
[13]
  Activity: 9.13%
[14]
  Activity: 1.38%

## NCCCC(=O)N[C@@H](Cc1cnc[nH]1)C(=O)O
[1]
  Activity: 12%
[2]
  Activity: 12.1%
[3]
  Activity: 3%
[4]
  Activity: 0.31%
[5]
  Activity: 1.02%
[6]
  Activity: 8%
[7]
  Activity: 18%
[8]
  Activity: 2%
[9]
  Activity: 17.6%
[10]
  Activity: 2.5%
[11]
  Activity: 0%
[12]
  Activity: 1%
[13]
  Activity: 8.28%
[14]
  Activity: 1.86%

## OC[C@H]1O[C@@H]2O[C@H]3[C@H](O)[C@@H](O)[C@@H](O[C@H]4[C@H](O)[C@@H](O)[C@@H](O[C@H]5[C@H](O)[C@@H](O)[C@@H](O[C@H]6[C@H](O)[C@@H](O)[C@@H](O[C@H]7[C@H](O)[C@@H](O)[C@@H](O[C@H]8[C@H](O)[C@@H](O)[C@@H](O[C@H]1[C@H](O)[C@H]2O)O[C@@H]8CO)O[C@@H]7CO)O[C@@H]6CO)O[C@@H]5CO)O[C@@H]4CO)O[C@@H]3CO
[2]
  Activity: 6.94%
[4]
  Activity: 0.11%
[5]
  Activity: 0.38%
[9]
  Activity: 10.7%
[10]
  Activity: 1.26%
[13]
  Activity: 3.87%
[14]
  Activity: 0.65%
